The assay deals with RSV strain A2. The experiment in a line: in vitro cytoprotection assay against RSV in Hep2 cells. The assay is classed as cell-based. The following applies: human respiratory syncytial virus, HEp-2, 96 h; 1 uM compound; RSV-induced cytopathic effect in Hep2 cells, 4 days, Cell TiterGlo; read-out: RSV % inh. @ 1 uM. The method, then:
Antiviral activity against RSV was determined using an in vitro cytoprotection assay in Hep2 cells. […] The method used is similar to methods previously described in Chapman J et al., “RSV604 a novel inhibitor of respiratory syncytial virus replication,” Antimicrob Agents Chemother, 51(9):3346-53 (2007).
Hep2 cells were obtained from ATCC (Manassas, Va.) and maintained in MEM media supplemented with 10% fetal bovine serum and penicillin/streptomycin. Cells were passaged twice a week and kept at subconfluent stage. Commercial stock of RSV strain A2 (Advanced Biotechnologies, Columbia, Md.) was titered before compound testing to determine the appropriate dilution of the virus stock that generates desirable cytopathic effect in Hep2 cells.
For antiviral tests, Hep2 cells were seeded into 96-well plates 24 hours before the assay at a density of 3,000 cells/well. On a separate 96well plate, tested compounds were serially diluted in cell culture media. Eight concentrations in 3-fold serial dilution increments were prepared for each tested compound and 100 uL/well of each dilution was transferred in duplicate onto plates with seeded Hep2 cells. Subsequently, appropriate dilution of virus stock previously determined by titration was prepared in cell culture media and 100 uL/well was added to test plates containing cells and serially diluted compounds. Each plate included three wells of infected untreated cells and three wells of uninfected cells that served as 0% and 100% virus inhibition control, respectively. Following the infection with RSV, testing plates were incubated for 4 days in a tissue culture incubator. After the incubation, RSV-induced cytopathic effect was determined using a Cell TiterGlo reagent (Promega, Madison, Wis.) followed by a luminescence read-out. The percentage inhibition was calculated for each tested concentration relative to the 0% and 100% inhibition controls and the EC50 value for each compound was determined by non-linear regression as a concentration inhibiting the RSV-induced cytopathic effect by 50%. Ribavirin (purchased from Sigma, St. Louis, Mo.) was used as a positive control for antiviral activity.
In general terms: Damage to the host cells serves as the signal in cytopathic effect assays.

Consider `O=C(NC1CC1)c1cc2c(s1)-c1ccccc1N(C(=O)c1ccc(NC(=O)c3cnccc3N3CCC3)cc1)CC2` [Example 19], for which the inhibition at 1 µM was found to be 100%.

With `O=C(NC1CC1)c1cc2c(s1)-c1ccccc1N(C(=O)c1ccc(NC(=O)c3ccncc3N3CCC3)cc1)CC2` [Example 12], the inhibition at 1 µM was 97%.

On to `C[C@H](NC(=O)c1cc2c(s1)-c1ccccc1N(C(=O)c1ccc(NC(=O)c3cccnc3N3CCCC3)cc1)CC2)C(N)=O` [Example 51], for which the inhibition at 1 µM worked out at 46%.

For the compound `Cc1ccsc1C(=O)Nc1ccc(C(=O)N2CCc3cc(C(=O)NC4CC4)sc3-c3ccccc32)cc1` [Example 22], the inhibition at 1 µM was 90%.

Take `CC(C)c1ccccc1C(=O)Nc1ccc(C(=O)N2CCc3cc(C(=O)NC4CC4)sc3-c3ccccc32)cc1` [Example 13]: the inhibition at 1 µM was 99%.

On to `COC[C@@H]1CCCN1c1ncccc1C(=O)Nc1ccc(C(=O)N2CCc3cc(C(=O)NC4CC4)sc3-c3ccccc32)cc1` [Example 43], for which the inhibition at 1 µM was 99%.

Turning to `O=C(Nc1ccccn1)c1cc2c(s1)-c1ccccc1N(C(=O)c1ccc(NC(=O)c3cccnc3N3CCCC3)cc1)CC2` [Example 54], the inhibition at 1 µM turned out to be 99%.

For the origin of these results see patent US8999969B2, “Anti-RSV compounds” (Gilead Sciences, Inc., priority 2009, dated 2015).
